In patent US9623021B2, “Nuclear receptor binding agents” (GTX, Inc., priority 2007, dated 2017):
“Also recorded” adds a separate entry of the source. Where two headings read alike, the source gives them in different places.

Tests used:
[1] = target: ERβ ligand binding domain (Homo sapiens (Human), UniProt Q92731); assay: Competitive [3H]-estradiol radioligand binding, ERβ (Example 21); details: for Ki Ratio (ER-α/ER-β): ratio between the binding constants of ER-α and ER-β
Protocol: (§1) ER binding affinity was determined via one of the following methods:
(§2) Briefly, the incubation mixture was filtered through a high affinity protein binding filter, and washed several times to remove any unbound radioactivity. The filter plate was air dried and sealed on the bottom.
(§3) Following incubation, plates were harvested onto GF/B filters and radioactivity was measured with a TopCount NXT (PerkinElmer). Nonspecific binding was subtracted from total binding to yield specific binding.

ARPE-19 cells = assay: Fluorescent detection of intracellular ROS in ARPE-19 cells (tBH oxidative stress); details: 150 μM tBH, FIG. 20B
[2] = target: ERα ligand binding domain (Homo sapiens (Human), UniProt P03372); assay: Competitive [3H]-estradiol radioligand binding, ERα (Example 21)
ERα ligand binding domain, sequence (P03372 whole entry, looked up, species assumed, the tested form may be a part): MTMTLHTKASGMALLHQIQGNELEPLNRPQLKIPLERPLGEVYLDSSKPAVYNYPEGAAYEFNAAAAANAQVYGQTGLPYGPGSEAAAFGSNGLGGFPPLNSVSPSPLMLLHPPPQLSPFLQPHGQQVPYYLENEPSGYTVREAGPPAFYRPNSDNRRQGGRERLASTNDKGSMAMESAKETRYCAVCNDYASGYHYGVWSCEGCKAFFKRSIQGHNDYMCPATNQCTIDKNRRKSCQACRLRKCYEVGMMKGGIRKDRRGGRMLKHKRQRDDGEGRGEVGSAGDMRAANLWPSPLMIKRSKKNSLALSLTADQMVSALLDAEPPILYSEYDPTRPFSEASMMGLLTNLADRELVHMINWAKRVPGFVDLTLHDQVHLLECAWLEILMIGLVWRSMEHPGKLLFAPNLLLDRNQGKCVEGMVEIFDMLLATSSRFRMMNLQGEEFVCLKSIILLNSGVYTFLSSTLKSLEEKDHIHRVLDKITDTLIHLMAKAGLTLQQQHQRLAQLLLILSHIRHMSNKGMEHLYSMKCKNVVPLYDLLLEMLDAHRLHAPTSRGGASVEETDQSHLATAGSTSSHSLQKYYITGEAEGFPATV
Protocol: as §1, §2, §3

ER-α = ER-α (Rattus norvegicus (Rat), UniProt P06211); format: cell-based; details: for Estradiol activity at 100 nM, ER-α: 100 nM NRBA compared to 1 nM estradiol
Protocol: COS or 293 cells were plated in DME without phenol red+10% cs FBS at 90,000 cells per well in 24 well plates, and were transfected with 0.25 μg of the vector “ERE-LUC”, where a firefly luciferase gene was driven by two estrogen responsive elements and 0.02 μg of the control CMV-LUC, Renilla where a luciferase gene was driven by a CMV promoter. […] All the receptors were cloned from rat tissue into the PCR3.1 vector backbone. Twenty four hours post transfection, cells were treated with compounds of this invention, estrogen, DHT, and other NRBAs or combinations thereof. Cells were harvested 48 hrs after transfection, and assayed for firefly and Renilla luciferase activity.

SHP promoter = assay: SHP promoter-luciferase in HEK-293 cells transfected with FXR and ER-β; format: cell-based; details: FXR and ER-β plasmids, FIG. 12E right panel
Protocol: FIG. 12 depict the effect of ER-β ligand on PPAR-γ function through ligand binding domain (LBD). (A). HEK-293 cells were transfected with 0.25 μg PPRE-LUC, 5 ng CMV-renilla LUC and the indicated receptors (PPAR-γ and ER-β for the left panel and PPAR-α and ER-β for the right panel). The cells were treated 24 hrs after transfection with the indicated ligands and harvested 48 hrs after transfection and firefly luciferase activity was measured and normalized to renilla luciferase. (B). H475 in ER-β LBD is important for its function. H475 in ER-β LBD was mutated to alanine (A) using a site directed mutagenesis kit. Transactivation assay was performed as described in panel A in HEK-293 cells with a titration of ER-β ligands in wild type or ER-β H475A. (C). […] HEK-293 cells were transfected with 0.25 μg PPRE-LUC, 5 ng CMV-renilla LUC and 50 ng of the indicated receptors (PPAR-γ or PPAR-γ and wild type ER-β or PPAR-γ and ER-β H475A). The cells were treated 24 hrs after transfection with the indicated ligands and harvested 48 hrs after transfection and firefly luciferase activity was measured and normalized to renilla luciferase. (D). […] HepG2 cells were transfected with 0.25 μg PPRE-LUC, 5 ng CMV-renilla LUC, 0.5 μg PGC-1 or vector backbone and 100 ng of the indicated receptors (PPAR-γ or PPAR-γ and wild type ER-β or PPAR-γ and ER-β H475A for top panels and PPAR-α or PPAR-α and ER-β for bottom panel). The cells were treated 24 hrs after transfection with the indicated ligands and harvested 48 hrs after transfection and firefly luciferase activity was measured and normalized to renilla luciferase. (E). SHP-1 is an ER-β specific target gene. HEK-293 cells were transfected with 0.25 μg SHP-LUC, 5 ng CMV-renilla LUC and 50 ng of the indicated receptors (FXR and ER-α for the left panel and FXR and ER-β for the right panel). The cells were treated 24 hrs after transfection with the indicated ligands and harvested 48 hrs after transfection and firefly luciferase activity was measured and normalized to renilla luciferase. […]

ER-β = ER-β (Rattus norvegicus (Rat), UniProt Q62986); assay: ER-β transactivation, ERE-LUC reporter in COS or 293 cells (Example 21B); format: cell-based
ER-β, sequence (Q62986 whole entry): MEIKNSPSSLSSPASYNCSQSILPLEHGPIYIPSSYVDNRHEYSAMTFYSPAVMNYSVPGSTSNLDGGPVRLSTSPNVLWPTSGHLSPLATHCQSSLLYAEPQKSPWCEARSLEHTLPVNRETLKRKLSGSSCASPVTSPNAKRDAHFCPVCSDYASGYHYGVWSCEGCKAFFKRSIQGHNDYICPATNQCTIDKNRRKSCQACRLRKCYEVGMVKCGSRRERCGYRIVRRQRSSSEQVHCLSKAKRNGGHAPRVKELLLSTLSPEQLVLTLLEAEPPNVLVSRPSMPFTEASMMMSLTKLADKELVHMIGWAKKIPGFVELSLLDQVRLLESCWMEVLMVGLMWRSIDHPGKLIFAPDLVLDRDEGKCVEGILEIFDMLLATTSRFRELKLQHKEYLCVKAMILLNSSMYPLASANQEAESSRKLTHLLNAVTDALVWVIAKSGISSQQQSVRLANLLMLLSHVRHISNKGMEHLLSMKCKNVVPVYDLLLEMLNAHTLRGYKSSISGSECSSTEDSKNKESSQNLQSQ

uterus = assay: Uterotropic assay; details: 50 μg/kg/day s.c., 3 days
Protocol: Statistical differences among groups were evaluated by one-way ANOVA. Rats were treated for 3 consecutive days and then sacrificed 24 h after the last dose. The body of the uterus was cut just above its junction with the cervix and at the junction of the uterine horns with the ovaries. The uterus was weighed with and without intrauterine fluid. Statistical comparisons were made between the weights of empty uteri.

ERβ ligand binding domain, sequence (Q92731 264-498, species assumed): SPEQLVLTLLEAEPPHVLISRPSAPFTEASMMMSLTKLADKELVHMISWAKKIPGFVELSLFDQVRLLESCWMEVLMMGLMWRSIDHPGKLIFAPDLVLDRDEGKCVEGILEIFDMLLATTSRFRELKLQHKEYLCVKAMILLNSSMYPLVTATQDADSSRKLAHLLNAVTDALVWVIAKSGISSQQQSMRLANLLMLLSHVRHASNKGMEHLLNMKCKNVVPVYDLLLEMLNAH

`O=c1c2ccc(O)cc2c(Cl)cn1-c1ccc(O)cc1` [Compound 12f, 4-chloro-6-hydroxy-2-(4-hydroxyphenyl)-isoquinolin-1(2H)-one] was tested. Which “Ki Ratio (ER-α/ER-β)” value [1] did it give?
Its value is 61.

`O=c1c2c(O)cc(O)cc2c(Br)cn1-c1ccc(O)c(F)c1` [Compound 12z, 4-bromo-6,8-dihydroxy-2-(3-fluoro-4-hydroxyphenyl)isoquinolin-1(2H)-one] was tested. Which “prevention of ROS formation / oxidative damage” value (ARPE-19 cells) did it give?
Its value is “able to prevent ROS formation as well as estradiol; also recorded: protected ARPE-19 cells from oxidative damage”.

And the Ki [2]?
Its Ki is 40 nM.

What about the “Ki Ratio (ER-α/ER-β)” value [1] of the same molecule?
The value was 12.

With `O=c1c2ccc(O)cc2c(I)cn1-c1ccc(O)cc1` [Compound 12h, 6-hydroxy-2-(4-hydroxyphenyl)-4-iodoisoquinolin-1(2H)-one] as the molecule, how does the “Ki Ratio (ER-α/ER-β)” value [1] read?
Its value is 22.

`Oc1ccc(-n2ccc3cc(O)cc(O)c3c2=S)cc1` [Compound 12p, 2-(4-hydroxyphenyl)-6,8-dihydroxy-isoquinoline-1(2H)-thione] was tested. Which “Estradiol activity at 100 nM, ER-α” value (ER-α) did it give?
Its value is 45%.

And the Ki [1]?
The Ki was 17 nM.

What about the “Ki Ratio (ER-α/ER-β)” value [1] of the same molecule?
The value was 8.

How did the SHP activity (SHP promoter) turn out when `CC(C)c1onc(-c2c(Cl)cccc2Cl)c1COc1ccc(/C=C/c2cccc(C(=O)O)c2)c(Cl)c1` [GW4064, reference compound] was run?
The SHP activity was “increased its activity significantly”.

`COc1cc(O)c2c(=O)n(-c3ccc(O)cc3)ccc2c1C#N` [Compound 12q, 8-hydroxy-2-(4-hydroxyphenyl)-6-methoxy-1-oxo-1,2-dihydroisoquinoline-5-carbonitrile] was tested. Which “Estradiol activity at 100 nM, ER-α” value (ER-α) did it give?
Its value is 25%.

`C=Cc1cn(-c2ccc(O)cc2)c(=O)c2c(O)cc(O)cc12` [Compound 14l, 6,8-dihydroxy-2-(4-hydroxyphenyl)-4-vinylisoquinolin-1(2H)-one] was tested. Which “prevention of ROS formation / oxidative damage” value (ARPE-19 cells) did it give?
The value was “protected ARPE-19 cells from oxidative damage”.

And the Ki [2]?
Its Ki is 76 nM.

What about the “Estradiol activity at 100 nM, ER-α” value (ER-α) of the same molecule?
Its value is 50%.

And the Ki [1]?
Its Ki is 6 nM.

For `COc1ccc(-c2cn(-c3ccc(O)cc3)c(=O)c3ccc(O)cc23)cc1` [Compound 15b, 6-hydroxy-2-(4-hydroxyphenyl)-4-(4-methoxyphenyl)isoquinolin-1(2H)-one], which “Ki Ratio (ER-α/ER-β)” value [1] is on record?
Its value is 8.3.

For `O=c1c2c(O)cc(O)cc2ccn1-c1ccc(O)cc1` [Compound 12l, 6,8-dihydroxy-2-(4-hydroxyphenyl)-isoquinolin-1(2H)-one], which “ER-β RLU/RenRLU” value (ER-β; dose 0.1 nM) is on record?
The value was 0.06 RLU/RenRLU.

And the “ER-β RLU/RenRLU” value (ER-β; dose 1 nM)?
The value was 0.07 RLU/RenRLU.

And the “ER-β RLU/RenRLU” value (ER-β; dose 10 nM)?
Its value is 0.16 RLU/RenRLU.

What about the “ER-β RLU/RenRLU” value (ER-β; dose 100 nM) of the same molecule?
Its value is 0.46 RLU/RenRLU.

And the “ER-β RLU/RenRLU” value (ER-β; dose 1000 nM)?
Its value is 0.55 RLU/RenRLU.

And the “ER-α RLU/RenRLU” value (ER-α; dose 0.1 nM)?
The value was 0.07 RLU/RenRLU.

And the “ER-α RLU/RenRLU” value (ER-α; dose 1 nM)?
Its value is 0.07 RLU/RenRLU.

And the “ER-α RLU/RenRLU” value (ER-α; dose 10 nM)?
The value was 0.07 RLU/RenRLU.

What about the “ER-α RLU/RenRLU” value (ER-α; dose 100 nM) of the same molecule?
Its value is 0.12 RLU/RenRLU.

What about the “ER-α RLU/RenRLU” value (ER-α; dose 1000 nM) of the same molecule?
Its value is 0.24 RLU/RenRLU.

How did the “uterine growth / uterine weight” value (uterus) turn out when `C[C@]12CC[C@@H]3c4ccc(O)cc4CC[C@H]3[C@@H]1CC[C@@H]2O` [Estradiol] was run?
The value was “stimulated the proliferation of uterus significantly”.

Which “Estradiol activity at 100 nM, ER-α” value (ER-α) does the source give for `O=c1c2c(O)cc(O)cc2ccn1-c1ccc(O)c(F)c1` [Compound 12s, 2-(3-fluoro-4-hydroxyphenyl)-6,8-dihydroxyisoquinolin-1(2H)-one] here?
Its value is 29%.

And the “Ki Ratio (ER-α/ER-β)” value [1]?
Its value is 25.

With `COc1cc(O)c2c(=O)n(-c3ccc(O)cc3)cc(Br)c2c1` [Compound 12v, 4-bromo-8-hydroxy-2-(4-hydroxyphenyl)-6-methoxyisoquinolin-1(2H)-one] as the molecule, how does the “Estradiol activity at 100 nM, ER-α” value (ER-α) read?
The value was 17%.
